Test systems include A549 NSCLC; COLO 205 colon; HT29 colon; KM12 colon; MALME-3M melanoma; NCI-H460 lung; OVCAR-3 ovarian; OVCAR-4 ovarian; SK-MEL-28 melanoma; SR leukemia; UACC-257 melanoma.
Test in all cases: NCI-60 cell line screen, 48 h

From PubChem BioAssay (NCI) come the findings set out here.

Molecules are shown by their SMILES.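 Test compounds were applied to cells in 96-well plates for 48 hours at 5 doses. TGI is the concentration that stops growth completely.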

With `O=C1Sc2cc3ccccc3cc2C(=O)Sc2cc3ccccc3cc21`, the TGI in the assay with A549 NSCLC was greater than 100 µM; in the assay with COLO 205 colon it was greater than 100 µM; with HT29 colon, greater than 90.5 µM; with KM12 colon it was greater than 100 µM; in the assay with MALME-3M melanoma it was greater than 93.5 µM; in the assay on NCI-H460 lung, greater than 100 µM. The TGI with OVCAR-3 ovarian was greater than 63.5 µM; with OVCAR-4 ovarian, 69.5 µM; in the assay on SK-MEL-28 melanoma, greater than 85.4 µM; with SR leukemia, 9.27 µM; in the assay with UACC-257 melanoma it was greater than 78.7 µM.
As to `C=C(C)C(=O)O[C@H]1CC2(CO)O[C@@H]2CC/C(COC(C)=O)=C/C2OC(=O)C(=C)[C@@H]21` (some centres undefined), the TGI in the assay on A549 NSCLC is greater than 100 µM; with COLO 205 colon, 48.4 µM; in the assay on HT29 colon it was greater than 100 µM; with KM12 colon, greater than 100 µM; with MALME-3M melanoma it was 62.2 µM; with NCI-H460 lung, greater than 100 µM. The TGI in the assay with OVCAR-3 ovarian is 79.6 µM; in the assay with OVCAR-4 ovarian it was greater than 100 µM; in the assay with SK-MEL-28 melanoma, greater than 64.6 µM; in the assay on SR leukemia, 43.3 µM; with UACC-257 melanoma it was 43.1 µM.
With `CCOC(=O)/C(C1=N[C@H](C(=O)OCC)CS1)=C(\O)c1ccccc1`, the TGI in the assay with A549 NSCLC, in the assay on COLO 205 colon, with HT29 colon, in the assay with KM12 colon, with MALME-3M melanoma and in the assay on NCI-H460 lung was greater than 100 µM in each case. Moreover, the TGI in the assay with OVCAR-3 ovarian, with OVCAR-4 ovarian, in the assay with SK-MEL-28 melanoma, with SR leukemia and in the assay with UACC-257 melanoma was greater than 100 µM in each case.
In the case of `Cc1c(Cl)c(=O)oc2cc(OCC(O)COC(C)C)ccc12` (centres undefined), the TGI is greater than 100 µM with A549 NSCLC; 47.8 µM with COLO 205 colon; greater than 100 µM in the assay on HT29 colon; greater than 100 µM with KM12 colon; 35.8 µM with MALME-3M melanoma; greater than 100 µM in the assay with NCI-H460 lung. For the same compound, the TGI was greater than 100 µM with OVCAR-3 ovarian; greater than 100 µM in the assay with OVCAR-4 ovarian; greater than 100 µM in the assay on SK-MEL-28 melanoma; 73.2 µM in the assay on SR leukemia; greater than 100 µM in the assay on UACC-257 melanoma.
As for `Cc1cc2nc3c(N)nn(CCN(C)C)c3nc2cc1C`, the TGI with A549 NSCLC, in the assay with COLO 205 colon, with HT29 colon, in the assay on KM12 colon, in the assay with MALME-3M melanoma and in the assay on NCI-H460 lung was greater than 100 µM each time. In addition, the TGI in the assay on OVCAR-3 ovarian, with OVCAR-4 ovarian, in the assay with SK-MEL-28 melanoma, in the assay on SR leukemia and with UACC-257 melanoma was greater than 100 µM each time.
With `CC(=O)Nc1nc(C)c(S(=O)(=O)NC(=O)N2c3ccccc3CCc3ccccc32)s1`, the TGI in the assay with A549 NSCLC, in the assay with COLO 205 colon, in the assay on HT29 colon, in the assay on KM12 colon, in the assay with MALME-3M melanoma and with NCI-H460 lung was greater than 100 µM in each case. For the same compound, the TGI with OVCAR-3 ovarian, in the assay on OVCAR-4 ovarian, in the assay on SK-MEL-28 melanoma, in the assay on SR leukemia and with UACC-257 melanoma was greater than 100 µM throughout.
Consider `CN1CCCC(OC(=O)c2cc3cc(CCl)ccc3oc2=O)C1` (centres undefined), for which the TGI was greater than 100 µM with A549 NSCLC; 35.7 µM in the assay with COLO 205 colon; 46.9 µM in the assay on HT29 colon; 68.3 µM with KM12 colon; 44.3 µM with MALME-3M melanoma; 44.9 µM in the assay on NCI-H460 lung. The TGI in the assay with OVCAR-3 ovarian was 37.8 µM; with OVCAR-4 ovarian it was 48.6 µM; in the assay on SK-MEL-28 melanoma, 50.3 µM; in the assay with SR leukemia, 70.1 µM; with UACC-257 melanoma it was 40.2 µM.
On to `O=C(O)Cn1ncn(NC(=O)Cc2ccccc2)c1=S`, for which the TGI in the assay on A549 NSCLC, in the assay on COLO 205 colon, in the assay on HT29 colon, with KM12 colon, with MALME-3M melanoma and in the assay on NCI-H460 lung was greater than 10 µM throughout. Further, the TGI with OVCAR-3 ovarian, in the assay on OVCAR-4 ovarian, in the assay with SK-MEL-28 melanoma, with SR leukemia and in the assay on UACC-257 melanoma was greater than 10 µM in each case.
In the case of `CCOC(=O)c1nc2ccccc2nc1Nc1ccc(F)cc1`, the TGI in the assay on A549 NSCLC, in the assay with COLO 205 colon, with HT29 colon, with KM12 colon, in the assay with MALME-3M melanoma and with NCI-H460 lung was greater than 100 µM throughout. Further, the TGI in the assay on OVCAR-3 ovarian, in the assay with OVCAR-4 ovarian, with SK-MEL-28 melanoma, in the assay with SR leukemia and in the assay on UACC-257 melanoma was greater than 100 µM throughout.
Turning to `Cc1cccc(=O)c([O-])c1.Cc1cccc(=O)c([O-])c1.Cc1cccc(=O)c([O-])c1.Cc1cccc(=O)c([O-])c1.[Th+4]`, the TGI is greater than 100 µM in the assay with A549 NSCLC; greater than 100 µM in the assay on COLO 205 colon; greater than 49.4 µM in the assay on HT29 colon; greater than 72.7 µM in the assay with KM12 colon; greater than 100 µM in the assay with MALME-3M melanoma; greater than 60.7 µM in the assay on NCI-H460 lung. Besides, the TGI was greater than 22 µM with OVCAR-3 ovarian; greater than 100 µM in the assay with OVCAR-4 ovarian; greater than 100 µM with SK-MEL-28 melanoma; greater than 100 µM in the assay with SR leukemia; greater than 63 µM in the assay with UACC-257 melanoma.
`COC(C/C=C\C=C\CC/C=C/CC(C)/C=C/C(=C\C(=O)O)CC(=O)O)/C(C)=C\C=C(/C)C(=O)O` (centres undefined): the TGI in the assay on A549 NSCLC, in the assay with COLO 205 colon, in the assay on HT29 colon, in the assay with KM12 colon, in the assay on MALME-3M melanoma and with NCI-H460 lung was greater than 100 µM in each case. Moreover, the TGI in the assay on OVCAR-3 ovarian, in the assay with OVCAR-4 ovarian, in the assay with SK-MEL-28 melanoma, with SR leukemia and in the assay with UACC-257 melanoma was greater than 100 µM throughout.
In the case of `COc1ccc(Nc2nc(NNC(=O)Cc3ccccc3)nc(NNC(=O)c3ccncc3)n2)cc1`, the TGI with A549 NSCLC, in the assay with COLO 205 colon, in the assay with HT29 colon, in the assay with KM12 colon, in the assay on MALME-3M melanoma and in the assay on NCI-H460 lung was greater than 10 µM in each case. The TGI in the assay on OVCAR-3 ovarian, with OVCAR-4 ovarian, in the assay with SK-MEL-28 melanoma, in the assay on SR leukemia and with UACC-257 melanoma was greater than 10 µM throughout.
Take `COCCN(C(=O)c1ccccc1)C1CCC(=O)c2[nH]c3ccccc3c21` (centres undefined): the TGI worked out at 31.2 µM in the assay with A549 NSCLC; 31.5 µM in the assay with COLO 205 colon; 24.3 µM with HT29 colon; 21.9 µM in the assay on KM12 colon; 17.7 µM in the assay on MALME-3M melanoma; 34.9 µM in the assay with NCI-H460 lung. Moreover, the TGI in the assay with OVCAR-3 ovarian is 25.3 µM; with OVCAR-4 ovarian, 22.2 µM; with SK-MEL-28 melanoma, 16 µM; with SR leukemia, greater than 24.8 µM; in the assay with UACC-257 melanoma it was greater than 66.7 µM.
With `CC(=O)c1cc(S(=O)(=O)c2ccc(O)c(C(C)=O)c2)ccc1O`, the TGI in the assay with A549 NSCLC, in the assay on COLO 205 colon, with HT29 colon, with KM12 colon, in the assay with MALME-3M melanoma and in the assay with NCI-H460 lung was greater than 100 µM each time. Also, the TGI in the assay on OVCAR-3 ovarian, in the assay with OVCAR-4 ovarian, with SK-MEL-28 melanoma, with SR leukemia and in the assay on UACC-257 melanoma was greater than 100 µM throughout.
On to `CC(C)CCCC(C)[C@H]1CC[C@H]2NCCCC[C@]12C` (some centres undefined), for which the TGI with A549 NSCLC was determined as 31.7 µM; in the assay on COLO 205 colon it was 3.14 µM; in the assay on HT29 colon it was 5.54 µM; in the assay with KM12 colon, 6.96 µM; in the assay with MALME-3M melanoma, 16.4 µM; in the assay on NCI-H460 lung, 4.25 µM. The TGI in the assay on OVCAR-3 ovarian was determined as 31.7 µM; with OVCAR-4 ovarian it was 17.4 µM; in the assay on SK-MEL-28 melanoma, 5.57 µM; in the assay on SR leukemia it was 6.23 µM; in the assay on UACC-257 melanoma, 9.37 µM.
`C=C(C)[C@@H]1CC[C@]2(C(=O)OC3OC(COC4OC(CO)C(OC5OC(C)C(O)C(O)C5O)C(O)C4O)C(O)C(O)C3O)CC[C@]3(C)[C@H](CC[C@@H]4[C@@]5(C)CC[C@H](O)[C@@](C)(CO)[C@@H]5CC[C@]43C)[C@@H]12` (some centres undefined): the TGI was greater than 10 µM with A549 NSCLC; 3.2 µM in the assay on COLO 205 colon; greater than 10 µM with HT29 colon; greater than 10 µM in the assay on KM12 colon; greater than 10 µM with MALME-3M melanoma; 5.11 µM with NCI-H460 lung. In addition, the TGI in the assay with OVCAR-3 ovarian was 5.16 µM; with OVCAR-4 ovarian, greater than 10 µM; in the assay with SK-MEL-28 melanoma, greater than 10 µM; in the assay on SR leukemia, greater than 4.48 µM; in the assay with UACC-257 melanoma it was greater than 10 µM.
Turning to `Nc1cc2ncnc(Nc3cccc(Br)c3)c2cn1`, the TGI in the assay on A549 NSCLC was greater than 100 µM; with COLO 205 colon, greater than 100 µM; with HT29 colon, greater than 100 µM; in the assay with KM12 colon it was 63.9 µM; in the assay on MALME-3M melanoma, greater than 100 µM; in the assay on NCI-H460 lung, greater than 100 µM. Moreover, the TGI in the assay with OVCAR-3 ovarian, in the assay on OVCAR-4 ovarian, with SK-MEL-28 melanoma, with SR leukemia and in the assay on UACC-257 melanoma was greater than 100 µM throughout.
Consider `O=C1/C(=C(/Br)I)c2ccccc2-c2ccccc21`, for which the TGI in the assay with A549 NSCLC was 32 µM; in the assay on COLO 205 colon it was 4.22 µM; in the assay on HT29 colon, 18.3 µM; in the assay with KM12 colon it was 32 µM; in the assay with MALME-3M melanoma, 11.5 µM; with NCI-H460 lung, 41.2 µM. Besides, the TGI is 24.6 µM in the assay with OVCAR-3 ovarian; 32.3 µM in the assay with OVCAR-4 ovarian; 42.8 µM in the assay with SK-MEL-28 melanoma; greater than 30.5 µM with SR leukemia; 18.5 µM with UACC-257 melanoma.
`O=P1(N(CCCl)CCCl)NCCCO1` (centres undefined): the TGI in the assay on A549 NSCLC was greater than 239 µM; with COLO 205 colon, greater than 250 µM; in the assay on HT29 colon it was greater than 231 µM; with KM12 colon, greater than 238 µM; in the assay on MALME-3M melanoma, greater than 250 µM; with NCI-H460 lung it was greater than 238 µM. Besides, the TGI in the assay with OVCAR-3 ovarian, in the assay on OVCAR-4 ovarian, with SK-MEL-28 melanoma, in the assay with SR leukemia and with UACC-257 melanoma was greater than 250 µM in each case.
